Test results published in publication PMC6054517, “Design and synthesis of novel oridonin analogues as potent anticancer agents” (Journal of Enzyme Inhibition and Medicinal Chemistry, 2018).

What was measured:
Type in all cases: cell-based, human
Conditions in all cases: MTT, 48 h, means ± SD, n = 3
AGS = assay: MTT antiproliferative assay, AGS cells
Description: (§1) Human gastric cancer (AGS), human differentiation of advanced gastric cancer (MGC803), human colorectal cancer (HCT116), human lung cancer (A549), human hepatocellular carcinoma (Bel7402) and human cervical cancer (HeLa) cell lines were obtained from the State Key Laboratory of Natural Resources and Functional Molecules of the Changbai Mountain (Yanbian University) and maintained in Dulbecco’s modified Eagle’s medium and RPMI Media 1640 (RPMI1640), supplemented with 10% foetal bovine serum 100 IU/ml penicillin, […] and 2 mmol/l L-glutamine (Sigma) at 37 °7 in a humidified atmosphere containing 5% CO2.
(§2) All six human cancer cell lines and normal L02 cells were seeded in 96-well plates at the appropriate densities to ensure exponential growth throughout the experimental period (9 × 10^3 cells per well) and then allowed to adhere for 24 h. The cells were then treated for 48 h with four serial dilutions (100, 50, 10, and 1 µM) of each compound. 5-Fluorouracil (5-FU) was used as the positive control. After incubation for 48 h, 10 µl MTT solution was added to each well to give a final concentration of 2 mg ml^−1. The plates were then incubated for further 4 h. After incubation, the MTT solution was removed and 150 µl DMSO was added to each well to solubilise the formed product. To ensure complete solubilisation, the plates were shaken vigorously for 10 min at room temperature. The optometric density (OD) was read on a microplate reader (ELx800, BioTek, Highland Park, Winooski, VT) at a wavelength of 492 nm and the data were subsequently analysed. The percentage of cell growth inhibition was calculated from the following equation: inhibitory rate (%) = [1–(ODtreated–ODblank)/(ODcontrol–ODblank)] × 100.
(§3) The MTT assay was performed using a standard protocol.

MGC803 = assay: MTT antiproliferative assay, MGC803 cells
Description: as §1, §2, §3

Bel7402 = assay: MTT antiproliferative assay, Bel7402 cells
Description: as §1, §2, §3

HCT116 = assay: MTT antiproliferative assay, HCT116 cells
Description: as §1, §2, §3

A549 = assay: MTT antiproliferative assay, A549 cells
Description: as §1, §2, §3

Hela = assay: MTT antiproliferative assay, HeLa cells
Description: as §1, §2, §3

IC50 (AGS) [µM]	IC50 (MGC803) [µM]	IC50 (Bel7402) [µM]	IC50 (HCT116) [µM]	IC50 (A549) [µM]	IC50 (Hela) [µM]	IC50 (AGS; Homo sapiens, AGS) [µM]	IC50 (MGC803; Homo sapiens, MGC-803) [µM]	IC50 (Bel7402; Homo sapiens, Bel-7402) [µM]	IC50 (HCT116; Homo sapiens, HCT-116, 48 h) [µM]	IC50 (A549; Homo sapiens, A549) [µM]	IC50 (Hela; Homo sapiens, HeLa) [µM]	Compound
13.7 ± 2.63	6.86 ± 1.24	8.45 ± 1.32	2.39 ± 0.19	4.16 ± 0.45	9.85 ± 2.03	–	–	–	–	–	–	(1S,4aR,5S,6S,6aR,9S,11aS,14R,E)-8-(4-(((Z)-3,6-dimethylhepta-2,5-dien1yl)oxy)benzylidene)-1,5,6,14-tetrahydroxy-4,4-dimethyldecahydro-1H-6,11b-(epoxymethano)-6a,9-methanocyclohepta[a]naphthalen-7(8H)-one [Compound 2r]
–	–	–	–	–	–	> 100	9.13 ± 0.82	4.97 ± 0.56	47.1 ± 4.32	> 100	> 100	CC1(C)CCC(O)C23COC(O)(C(O)C12)C12C(=O)C(=Cc4ccccc4)C(CCC31)C2O [Compound 2a, (1S,4aR,5S,6S,6aR,9S,11aS,14R,E)-8-benzylidene-1,5,6,14-tetrahydroxy-4,4-dimethyldecahydro-1H-6,11b-(epoxymethano)-6a,9-methanocyclohepta[a]naphthale-n-7(8H)-one]
–	–	–	–	–	–	10 ± 1.88	10.9 ± 1.39	6.54 ± 0.94	3.09 ± 0.41	15.3 ± 1.31	8.21 ± 1.2	CCCOc1ccc(/C=C2/C(=O)[C@]34[C@H](O)[C@H]2CC[C@H]3C23CO[C@]4(O)[C@@H](O)[C@@H]2C(C)(C)CC[C@@H]3O)cc1 [Compound 2o, (1S,4aR,5S,6S,6aR,9S,11aS,14R,E)-1,5,6,14-tetrahydroxy-4,4-dimethyl-8-(4-propoxybenzylidene)decahydro-1H-6,11b-(epoxymethano)-6a,9-methanocyclohepta-[a]naphthalen-7(8H)-one]
–	–	–	–	–	–	17.6 ± 2.32	17.7 ± 1.67	3.15 ± 0.64	11.1 ± 1.83	13.6 ± 1.89	30.7 ± 2.9	COc1ccc(/C=C2/C(=O)[C@]34[C@H](O)[C@H]2CC[C@H]3C23CO[C@]4(O)[C@@H](O)[C@@H]2C(C)(C)CC[C@@H]3O)cc1OC [Compound 2m, (1S,4aR,5S,6S,6aR,9S,11aS,14R,E)-8-(3,4-dimethoxybenzylidene)-1,5,6,14-tetrahydroxy-4,4-dimethyldecahydro-1H-6,11b-(epoxymethano)-6a,9-methanocyclohepta[a]naphthalen-7(8H)-one]
–	–	–	5.48 ± 0.64	–	–	2.87 ± 0.58	10.4 ± 1.29	3.56 ± 0.52	5.08	7.89 ± 0.99	24.7 ± 2.08	COc1ccccc1/C=C1/C(=O)[C@]23[C@H](O)[C@H]1CC[C@H]2C12CO[C@]3(O)[C@@H](O)[C@@H]1C(C)(C)CC[C@@H]2O [Compound 2j, (1S,4aR,5S,6S,6aR,9S,11aS,14R,E)-1,5,6,14-tetrahydroxy-8-(2-methoxybenzylidene)-4,4-dimethyldecahydro-1H-6,11b-(epoxymethano)-6a,9-methanocyclohepta-[a]naphthalen-7(8H)-one]
–	–	–	–	–	–	2.91 ± 0.42	2.79 ± 0.38	4.52 ± 0.46	2.99 ± 0.32	16.8 ± 2.51	68.8 ± 5.32	COc1ccc(/C=C2/C(=O)[C@]34[C@H](O)[C@H]2CC[C@H]3C23CO[C@]4(O)[C@@H](O)[C@@H]2C(C)(C)CC[C@@H]3O)cc1 [Compound 2k, (1S,4aR,5S,6S,6aR,9S,11aS,14R,E)-1,5,6,14-tetrahydroxy-8-(4-methoxybenzylidene)-4,4-dimethyldecahydro-1H-6,11b-(epoxymethano)-6a,9-methanocyclohepta-[a]naphthalen-7(8H)-one]
–	–	–	–	–	–	13.9 ± 1.5	23.6 ± 1.48	> 100	36.6 ± 2.43	47.4 ± 3.49	> 100	CC1(C)CCC(O)C23COC(O)(C(O)C12)C12C(=O)C(=Cc4cccc(F)c4)C(CCC31)C2O [Compound 2b, (1S,4aR,5S,6S,6aR,9S,11aS,14R,E)-8-(3-fluorobenzylidene)-1,5,6,14-tetrahydroxy-4,4-dimethyldecahydro-1H-6,11b-(epoxymethano)-6a,9-methanocyclohepta[a]n-aphthalen-7(8H)-one]
–	–	–	–	–	–	15.3 ± 1.78	7.27 ± 0.74	9.66 ± 1.15	14 ± 1.94	23.1 ± 3.63	> 100	CC1(C)CC[C@H](O)C23CO[C@](O)([C@@H](O)[C@H]12)[C@]12C(=O)/C(=C/c4ccc(Cl)cc4)[C@H](CC[C@@H]31)[C@H]2O [Compound 2e, (1S,4aR,5S,6S,6aR,9S,11aS,14R,E)-8-(4-chlorobenzylidene)-1,5,6,14-tetrahydroxy-4,4-dimethyldecahydro-1H-6,11b-(epoxymethano)-6a,9-methanocyclohepta[a]-naphthalen-7(8H)-one]
–	–	–	–	–	–	55 ± 4.43	21 ± 1.24	51.2 ± 5.43	17.5 ± 1.44	12.6 ± 1.39	26 ± 1.48	CC1(C)CCC(O)C23COC(O)(C(O)C12)C12C(=O)C(=Cc4ccc5ccccc5c4)C(CCC31)C2O [Compound 2y, (1S,4aR,5S,6S,6aR,9S,11aS,14R,E)-1,5,6,14-tetrahydroxy-4,4-dimethyl-8-(napht-halen-2-ylmethylene)decahydro-1H-6,11b-(epoxymethano)-6a,9-methanocyclohepta[a]naphthalen-7(8H)-one]
–	–	–	–	–	–	14.1 ± 1.65	2.13 ± 0.13	16.9 ± 1.3	19.8 ± 3.19	12.7 ± 1.56	15.2 ± 1.47	CC1(C)CCC(O)C23COC(O)(C(O)C12)C12C(=O)C(=Cc4cccc(Cl)c4)C(CCC31)C2O [Compound 2d, (1S,4aR,5S,6S,6aR,9S,11aS,14R,E)-8-(3-chlorobenzylidene)-1,5,6,14-tetrahydrox-y-4,4-dimethyldecahydro-1H-6,11b-(epoxymethano)-6a,9-methanocyclohepta[a]-naphthalen-7(8H)-one]
–	–	–	–	–	–	> 100	22.8 ± 1.25	> 100	59 ± 3.37	> 100	> 100	Cc1ccccc1/C=C1/C(=O)[C@]23[C@H](O)[C@H]1CC[C@H]2C12CO[C@]3(O)[C@@H](O)[C@@H]1C(C)(C)CC[C@@H]2O [Compound 2f, (1S,4aR,5S,6S,6aR,9S,11aS,14R,E)-1,5,6,14-tetrahydroxy-4,4-dimethyl-8-(2-methylbenzylidene)decahydro-1H-6,11b-(epoxymethano)-6a,9-methanocyclohepta[a]-naphthalen-7(8H)-one]
–	–	–	–	–	–	14.3 ± 2.43	> 100	12.6 ± 1.05	10.2 ± 1.12	59.6 ± 4.75	> 100	CC1(C)CCC(O)C23COC(O)(C(O)C12)C12C(=O)C(=Cc4ccc(F)cc4)C(CCC31)C2O [Compound 2c, (1S,4aR,5S,6S,6aR,9S,11aS,14R,E)-8-(4-fluorobenzylidene)-1,5,6,14-tetrahydroxy-4,4-dimethyldecahydro-1H-6,11b-(epoxymethano)-6a,9-methanocyclohepta[a]n-aphthalen-7(8H)-one]
–	–	–	–	–	–	3.1 ± 0.41	9.1 ± 1.72	8.62 ± 1.12	7.63 ± 0.81	4.66 ± 0.3	5.43 ± 0.85	CC(C)=CCOc1cccc(/C=C2/C(=O)[C@]34[C@H](O)[C@H]2CC[C@H]3C23CO[C@]4(O)[C@@H](O)[C@@H]2C(C)(C)CC[C@@H]3O)c1 [Compound 2q, (1S,4aR,5S,6S,6aR,9S,11aS,14R,E)-1,5,6,14-tetrahydroxy-4,4-dimethyl-8-(3-((3-methylbut-2-en1yl)oxy)benzylidene)decahydro-1H-6,11b-(epoxymethano)-6a,9-methanocyclohepta[a]naphthalen-7(8H)-one]
